Patent US7250492B2, “Compositions and methods for inhibition of cancer invasion and angiogenesis” (The Research Foundation at State University of New York, priority 2000, dated 2007)

Assays:
seprase-DPPIV complex = molecular target: T1, seprase-DPPIV complex (Homo sapiens, UniProt P27487+Q12884); assay: collagen-degrading activity: peptide release from biotinylated type I collagen gel; type: biochemical; conditions: 37° C., 8 h; mAb 5 μg/ml, AEBSF 20 μM, CG1847 50 nM
T1 construct: The seprase-DPPIV complex was isolated from WI38 RIPA extracts using mAbs D28; endogenous in cells; host or cells: WI38 human fibroblasts (RIPA extract, immuno-isolated on mAb D28 or E3 beads)
T1 sequence (P27487 whole entry, one chain of several): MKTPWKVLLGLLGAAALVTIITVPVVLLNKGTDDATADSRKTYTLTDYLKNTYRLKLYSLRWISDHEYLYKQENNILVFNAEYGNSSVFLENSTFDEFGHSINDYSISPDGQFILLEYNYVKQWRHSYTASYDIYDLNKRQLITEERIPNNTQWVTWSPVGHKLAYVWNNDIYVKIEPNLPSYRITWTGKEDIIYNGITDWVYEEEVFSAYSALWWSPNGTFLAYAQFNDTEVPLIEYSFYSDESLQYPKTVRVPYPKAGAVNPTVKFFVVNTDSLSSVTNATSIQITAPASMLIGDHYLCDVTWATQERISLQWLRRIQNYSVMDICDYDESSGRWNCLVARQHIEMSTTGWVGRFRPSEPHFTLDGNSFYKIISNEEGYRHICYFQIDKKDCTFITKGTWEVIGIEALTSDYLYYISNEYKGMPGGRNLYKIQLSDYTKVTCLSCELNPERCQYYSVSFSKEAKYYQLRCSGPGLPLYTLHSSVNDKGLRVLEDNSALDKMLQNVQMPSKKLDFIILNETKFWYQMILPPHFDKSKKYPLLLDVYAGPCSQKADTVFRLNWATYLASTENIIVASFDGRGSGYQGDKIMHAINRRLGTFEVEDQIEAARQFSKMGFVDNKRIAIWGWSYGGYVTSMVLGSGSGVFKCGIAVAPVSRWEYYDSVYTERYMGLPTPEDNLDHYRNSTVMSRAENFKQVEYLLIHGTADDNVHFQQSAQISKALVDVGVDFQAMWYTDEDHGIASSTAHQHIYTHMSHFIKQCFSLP
Protocol: FIG. 9. Collagen-degrading activity of the seprase-DPPIV complex. Collagen-degrading activities of the protease complex and purified DPPIV were determined by the release of peptide fragments from biotinylated type I collagen gel in the presence of these enzymes. The seprase-DPPIV complex was isolated from WI38 RIPA extracts using mAbs D28 (lane marked Ip Seprase) and E3 (lane marked Ip DPPIV) beads, seprase from LOX WGA fraction using mAb D28 (lane marked Ip Seprase*), MMP-2 from media conditioned by MMP-2 COS cell transfectants (lane marked MMP-2), and proteins associated with β3 integrin were from WI38 RIPA extracts using HB242 (lane marked Ip β3 integrin). All enzymes, including the protease complex, purified seprase, MMP-2, and proteins associated with β1 or β3 integrin were applied at the concentration of 50 ng/ml. […]
Collagen-degrading activity of isolated DPPIV or seprase-DPPIV complex was determined by the release of peptide fragments from biotinylated type I collagen gel by immuno-isolated proteases or the protease complex. […]

seprase = molecular target: T2, seprase (Homo sapiens, UniProt Q12884); conditions: cited from earlier work
T2 sequence (Q12884 1-760): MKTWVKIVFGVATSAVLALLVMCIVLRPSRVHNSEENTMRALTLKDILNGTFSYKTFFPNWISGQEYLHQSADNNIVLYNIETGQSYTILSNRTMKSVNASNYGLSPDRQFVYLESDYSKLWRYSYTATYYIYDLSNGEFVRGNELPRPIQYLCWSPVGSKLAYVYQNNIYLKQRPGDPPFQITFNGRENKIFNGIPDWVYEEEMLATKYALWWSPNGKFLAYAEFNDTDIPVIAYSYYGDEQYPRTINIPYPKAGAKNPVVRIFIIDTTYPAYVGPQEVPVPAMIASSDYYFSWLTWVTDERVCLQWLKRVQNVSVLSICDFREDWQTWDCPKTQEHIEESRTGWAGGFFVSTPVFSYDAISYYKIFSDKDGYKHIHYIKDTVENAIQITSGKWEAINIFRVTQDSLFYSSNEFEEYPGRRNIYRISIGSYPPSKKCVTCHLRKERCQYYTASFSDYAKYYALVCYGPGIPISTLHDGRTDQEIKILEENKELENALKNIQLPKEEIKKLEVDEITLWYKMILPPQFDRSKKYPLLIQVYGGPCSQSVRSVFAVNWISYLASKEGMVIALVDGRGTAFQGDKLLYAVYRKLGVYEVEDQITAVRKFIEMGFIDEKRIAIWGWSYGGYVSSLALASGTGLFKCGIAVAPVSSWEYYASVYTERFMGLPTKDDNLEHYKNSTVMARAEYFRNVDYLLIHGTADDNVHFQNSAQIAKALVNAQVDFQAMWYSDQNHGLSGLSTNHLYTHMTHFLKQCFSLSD

DPPIV = DPPIV (Homo sapiens, UniProt P27487); conditions: reversible DPPIV inhibitor; cited from earlier work
Chain of DPPIV (P27487 whole entry, species assumed): as the sequence (P27487 whole entry, one chain of several) above

Compound | degradation of collagen by the seprase-DPPIV complex (seprase-DPPIV complex) | seprase gelatinase activity (seprase) | inhibition of seprase activity (seprase) | Ki (DPPIV)
NCCc1ccc(S(=O)(=O)F)cc1 [AEBSF] | blocked | completely blocked | – | –
O=S(=O)(F)Cc1ccccc1 [PMSF] | – | completely blocked | inhibits | –
NC(CCC(=O)NOC(=O)c1ccccc1)C(=O)N1CCCC1 (stereo not shown) [H-Glu(NHO-Bz)-Pyrr] | – | – | – | 500 nM
CCN1C(=O)C=CC1=O [NEM] | – | – | inhibited | –
N=C(N)c1ccc(CS(=O)(=O)F)cc1 [APSF] | – | completely blocked | – | –
